Data set [1] in a line: Dynamic vapor sorption (DVS) hygroscopicity study of the crystal forms. It is filed as physicochemical. On the procedure:
The dynamic vapor sorption (DVS) curve is collected on the DVS Intrinsic plus by SMS (surface measurement systems). The relative humidity at 25° C. is corrected by the deliquescence point of lithium chloride (LiCl), magnesium nitrate [Mg(NO3)2] and potassium chloride (KCl).
The test parameters are as follows:
The hygroscopicity evaluation is classified as follows:
The specific results are shown as the DVS spectrums in FIGS. 27-29.

The nature of data set [2]: Crystal form change after drying the sample open at room temperature overnight. It counts as physicochemical. How it is done:
About 15 mg of crystal Form A of formula (II-1) compound was weighed to add into a 3 mL vial, then adding 1.0 mL MeOH/MTBE (1:1, v/v), stirring at 50° C. for equilibrating about 1 hour, and then filtering to obtain the supernatant.
About 15 mg of crystal Form A of formula (II-1) compound was weighed to add into a 20 mL vial, then dissolving the solids completely with 0.2-1.0 mL MeOH (filtering out the undissolved sample by 0.45 m PTFE filter to obtain clear solution).

The nature of data set [3]: Solid stability of crystal forms under accelerated conditions, XRPD detection. It is filed as physicochemical. The settings on record: for Crystal form: 75% RH, open, XRPD detection.
The target in data set [4] is T1, GLP-1 receptor (Homo sapiens, UniProt P43220).
T1 construct: host or cells: 'GLP-1 cell' constructed cell strain
T1 sequence (P43220 24-463): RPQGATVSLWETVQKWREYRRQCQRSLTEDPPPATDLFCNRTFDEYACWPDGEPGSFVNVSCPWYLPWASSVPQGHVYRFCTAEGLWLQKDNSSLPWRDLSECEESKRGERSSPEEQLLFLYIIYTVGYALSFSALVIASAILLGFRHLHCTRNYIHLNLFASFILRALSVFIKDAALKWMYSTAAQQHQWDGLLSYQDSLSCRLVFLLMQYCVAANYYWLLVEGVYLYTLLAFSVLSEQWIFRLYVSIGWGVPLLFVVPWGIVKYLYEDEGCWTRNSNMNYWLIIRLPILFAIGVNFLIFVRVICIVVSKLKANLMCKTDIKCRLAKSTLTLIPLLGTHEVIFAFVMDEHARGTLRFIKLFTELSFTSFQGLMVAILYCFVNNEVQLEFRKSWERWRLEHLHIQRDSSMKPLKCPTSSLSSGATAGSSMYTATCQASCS
As to the kind of experiment: Detection of cell viability in vitro (cAMP detection in GLP-1 cells). It counts as cell-based. On the procedure:
OptiPlate-384, White, PerkinElmer (Cat #6007290); 384 well plate for Echo, Labcyte (Cat #P-05525); EnVision, PerkinElmer; Vi-cell counter, Beckman (Cat # Vi-CELL™ XR Cell Viability Analyzer)
The compound was prepared to a working concentration of […] with DMSO. In this test, the use amount of each sample is 5 μL.
Preparation of cAMP detection reagent: 250 μL cAMP-D2, and 250 μL anti-cAMP cryptate reagent were added to 4 mL lysis buffer, then mixing well gently.
The compound to be tested was diluted 3 times at 10 points, the initial concentration was 30 M; and the dilution was completed by Bravo plateform. […]
• 1) A GLP-1 cell cryopreservation tube was quickly thawed in warm water at 37° C. 2) The cell suspension was transferred to a 15 mL Transfer centrifuge tube, then gently rinsing with 10 mL HBSS. • 3) The centrifuge tube was centrifuged at room temperature and 1000 rpm for 1 min. • 4) The supernatant was discarded. • 5) The cells at the bottom were gently dispersed and washed with 10 mL HBSS, then centrifuging to obtain cell sediment, and resuspending the cells with experimental buffer. • 6) Cell density and viability were measured by Vi-cell counter. • 7) GLP-1 cells were diluted with experimental buffer to a concentration of 2.0*10^5/mL. • 8) 100 nL of diluted cell suspension was transferred into OptiPlate-384 plate. • 9) The cells were incubated at room temperature for 30 min. […]

The nature of data set [5]: Study on DMPK in rats (oral, single administration). It counts as in vivo. The note with it: rat, male SD rats, oral 5 mg/kg, plasma. How it is done: Male SD rats were used as test animals. After single administration, the plasma concentration of the compound was measured, and the pharmacokinetic behavior was evaluated.
Two healthy adult male SD rats were selected as the oral group. In the oral group, the vehicle was 20% PEG400/10% solutol/70% water; after the compound to be tested was mixed with the vehicle, 0.5 mg/mL clear solution was prepared by vortex and ultrasound. After oral administration at 5 mg/kg, the whole blood of rat was collected for a certain period of time to prepare plasma; then the drug concentration was analyzed by LC-MS/MS method, and the pharmacokinetic parameters were calculated by Phoenix WinNonlin software (Pharsight, USA).

Data set [6] can be described thus: Study on DMPK in cynomolgus monkeys (oral, single administration). It is filed as in vivo. The settings on record: cynomolgus monkey, male cynomolgus monkeys, oral 20 mg/kg, plasma. How it is done: Male cynomolgus monkeys were used as test animals. After single administration, the plasma concentration of the compound was measured, and the pharmacokinetic behavior was evaluated.
Two healthy male cynomolgus monkeys were selected as a group. In the oral group, the vehicle was 20% HP-β-CD aqueous solution; after the compound to be tested was mixed with the vehicle, 4 mg/mL approximately clear solution was prepared by vortex and ultrasound. After oral administration at 20 mg/kg, the whole blood of cynomolgus monkey was collected for a certain period of time to prepare plasma; then the drug concentration was analyzed by LC-MS/MS method, and the pharmacokinetic parameters were calculated by Phoenix WinNonlin software (Pharsight, USA).

The mark [7] stands for this setting: read-out: F % (oral bioavailability).

The record followed here is patent US20250154161A1, “CRYSTAL FORMS OF THIENOIMIDAZOLE COMPOUND AND PREPARATION METHOD THEREOF” (HANGZHOU SCIWIND BIOSCIENCES CO., LTD., priority 2021, published 2025).

pEC50: −log10 of the molar value.

For the molecule `O=C(O)c1cc2c(nc(CN3CC=C(c4cccc(OCc5ccc(Cl)cc5F)n4)CC3)n2C[C@@H]2CCO2)s1` [crystal Form A], the “crystal form before and after adsorption and desorption” value in data set [1] was “changes”. In data set [1] (25° C. and 80% RH), the hygroscopic weight gain is recorded as 2.20%.

Take `O=C(O)c1cc2c(nc(CN3CC=C(c4cccc(OCc5ccc(Cl)cc5F)n4)CC3)n2C[C@@H]2CCO2)s1` [crystal Form B]: the “crystal form after drying open at room temperature overnight” value in data set [2] is “transformed into crystal Form E”.

As to `O=C(O)c1cc2c(nc(CN3CC=C(c4cccc(OCc5ccc(Cl)cc5F)n4)CC3)n2C[C@@H]2CCO2)s1` [crystal Form E], the Crystal form result in data set [3] (40° C., Day 5) is “crystal Form E”; in data set [3] (40° C., Day 15), “crystal Form E”; in data set [3] (40° C., Month 1) it was “crystal Form E”; in data set [3] (40° C., Month 2), “crystal Form E”; in data set [3] (60° C., Day 5) it was “crystal Form E”; in data set [3] (60° C., Day 15), “crystal Form E”. In addition, the Crystal form entry is given as “crystal Form E” in data set [3] (60° C., Month 1) and “crystal Form E” in data set [3] (60° C., Month 2). The “solid stability (conclusion)” value in data set [3] (fully exposed, 40° C./75% RH and 60° C./75% RH, XRPD compared with day 0) was “good stability”.

As for `O=C(O)c1cc2c(nc(CN3CC=C(c4cccc(OCc5ccc(Cl)cc5F)n4)CC3)n2C[C@@H]2CCO2)s1` [compound of formula (I)], in data set [4] (GLP-1 target in HEK293 host cell, cAMP detection, read-out: Human-GLP1, EC50), the pEC50 was 9.43. Also, the “ability to stimulate GLP-1 receptor” value in data set [4] (cAMP, GLP-1 cells) is listed as “better ability to stimulate GLP-1 receptor”. The Cmax worked out at 0.0855 µM in data set [5] and 1.43 µM in data set [6]. For the same molecule, the figures for the AUC(0-t) in data set [5] (24-hour oral exposure) and in data set [6] (24-hour oral exposure) were 0.234 µM·h and 12.8 µM·h, respectively. The results for the bioavailability in data set [5] (setting [7]) and in data set [6] (setting [7]) were 6.6% and 22.1%, respectively.

In general, pEC50 refers to −log10 of the EC50, conventionally taken in molar units. A word on the Cmax: it is the maximum level reached in the sampled fluid or tissue. For orientation: AUC(0-t) means the area under the concentration-time curve up to a stated or last time point. What is called bioavailability is dose-corrected exposure relative to a reference, in per cent.
